# Data as given in patent US20060128979A1, “High purity palm monoglycerides” (Lembaga Minyak Sawit Malaysia, priority 2004, published 2006).
# Legend:
# Type in all cases: cell-based
# [1] = test system: methicillin-resistant Staphylococcus aureus (MRSA) isolate N34; test: Disc diffusion assay, MRSA isolate N34
# Description: (§1) Monolaurin samples (MC, MW and MX) synthesized using the present invention were subjected to bio-assay evaluation. Disc diffusion assay was adopted as preliminary evaluation of the compounds as anti methicillin-resistant Staphylococcus aureus (MRSA) agent. Four types of antibiotics were used as comparison: Vancomycin (Va), Rifampicin (RD), Chloamphenicol (C) and Gentamicin (CN).
# [2] = test system: methicillin-resistant Staphylococcus aureus (MRSA) isolate D51; test: Disc diffusion assay, MRSA isolate D51
# Description: as §1
# [3] = test system: methicillin-resistant Staphylococcus aureus (MRSA) isolate CT184; test: Disc diffusion assay, MRSA isolate CT184
# Description: as §1
# [4] = test system: methicillin-resistant Staphylococcus aureus (MRSA) isolate ST122; test: Disc diffusion assay, MRSA isolate ST122
# Description: as §1
# [5] = test system: methicillin-resistant Staphylococcus aureus (MRSA) isolate U949; test: Disc diffusion assay, MRSA isolate U949
# Description: as §1
# [6] = test system: methicillin-resistant Staphylococcus aureus (MRSA) isolate SA; test: Disc diffusion assay, MRSA isolate SA
# Description: as §1
# [7] = test system: methicillin-resistant Staphylococcus aureus (MRSA) isolate HIS87; test: Disc diffusion assay, MRSA isolate HIS87
# Description: as §1
# [8] = test system: methicillin-resistant Staphylococcus aureus (MRSA) isolate SP521; test: Disc diffusion assay, MRSA isolate SP521
# Description: as §1
# [9] = C (Chloamphenicol) as comparison
SMILES,"Diameter of Inhibitory Zone [1, 9] [mm]",Diameter of Inhibitory Zone ([1]; CN (Gentamicin) as comparison) [mm],Diameter of Inhibitory Zone ([1]; Rd (Rifampicin) as comparison) [mm],Diameter of Inhibitory Zone ([1]; Va (Vancomycin) as comparison) [mm],"Diameter of Inhibitory Zone [2, 9] [mm]",Diameter of Inhibitory Zone ([2]; CN (Gentamicin) as comparison) [mm],Diameter of Inhibitory Zone ([2]; Rd (Rifampicin) as comparison) [mm],Diameter of Inhibitory Zone ([2]; Va (Vancomycin) as comparison) [mm],"Diameter of Inhibitory Zone [3, 9] [mm]",Diameter of Inhibitory Zone ([3]; CN (Gentamicin) as comparison) [mm],Diameter of Inhibitory Zone ([3]; Rd (Rifampicin) as comparison) [mm],Diameter of Inhibitory Zone ([3]; Va (Vancomycin) as comparison) [mm],"Diameter of Inhibitory Zone [4, 9] [mm]",Diameter of Inhibitory Zone ([4]; CN (Gentamicin) as comparison) [mm],Diameter of Inhibitory Zone ([4]; Rd (Rifampicin) as comparison) [mm],Diameter of Inhibitory Zone ([4]; Va (Vancomycin) as comparison) [mm],"Diameter of Inhibitory Zone [5, 9] [mm]",Diameter of Inhibitory Zone ([5]; CN (Gentamicin) as comparison) [mm],Diameter of Inhibitory Zone ([5]; Rd (Rifampicin) as comparison) [mm],Diameter of Inhibitory Zone ([5]; Va (Vancomycin) as comparison) [mm],also measured
"CCCCCCCCCCCC(=O)OCC(O)CO (stereo not shown) [MC, monolaurin]",0.89,0.44,0.44,2.99,0.87,0.86,0.11,2.95,0.82,0.35,0.42,2.79,5.50,1.17,1.17,8.26,4.73,1.02,1.02,7.77,"Diameter of Inhibitory Zone [6, 9]: 2.00 mm; Diameter of Inhibitory Zone ([6]; CN (Gentamicin) as comparison): 0.40 mm; Diameter of Inhibitory Zone ([6]; Rd (Rifampicin) as comparison): 0.40 mm; Diameter of Inhibitory Zone ([6]; Va (Vancomycin) as comparison): 2.92 mm; Diameter of Inhibitory Zone [7, 9]: 0.84 mm; Diameter of Inhibitory Zone ([7]; CN (Gentamicin) as comparison): 0.96 mm; Diameter of Inhibitory Zone ([7]; Rd (Rifampicin) as comparison): 0.11 mm; Diameter of Inhibitory Zone ([7]; Va (Vancomycin) as comparison): 2.79 mm; Diameter of Inhibitory Zone [8, 9]: 2.68 mm; Diameter of Inhibitory Zone ([8]; CN (Gentamicin) as comparison): 1.13 mm; Diameter of Inhibitory Zone ([8]; Rd (Rifampicin) as comparison): 1.13 mm; Diameter of Inhibitory Zone ([8]; Va (Vancomycin) as comparison): 7.64 mm"
"CCCCCCCCCCCC(=O)OCC(O)CO (stereo not shown) [MW, monolaurin]",0.93,0.46,0.46,3.12,0.88,0.88,0.11,3.00,0.82,0.35,0.42,2.79,4.25,0.90,0.90,6.38,1.85,0.40,0.40,3.04,"Diameter of Inhibitory Zone [6, 9]: 3.72 mm; Diameter of Inhibitory Zone ([6]; CN (Gentamicin) as comparison): 0.74 mm; Diameter of Inhibitory Zone ([6]; Rd (Rifampicin) as comparison): 0.74 mm; Diameter of Inhibitory Zone ([6]; Va (Vancomycin) as comparison): 5.42 mm; Diameter of Inhibitory Zone [7, 9]: 0.85 mm; Diameter of Inhibitory Zone ([7]; CN (Gentamicin) as comparison): 0.98 mm; Diameter of Inhibitory Zone ([7]; Rd (Rifampicin) as comparison): 0.12 mm; Diameter of Inhibitory Zone ([7]; Va (Vancomycin) as comparison): 2.84 mm; Diameter of Inhibitory Zone [8, 9]: 2.14 mm; Diameter of Inhibitory Zone ([8]; CN (Gentamicin) as comparison): 0.90 mm; Diameter of Inhibitory Zone ([8]; Rd (Rifampicin) as comparison): 0.90 mm; Diameter of Inhibitory Zone ([8]; Va (Vancomycin) as comparison): 6.12 mm"
